Where two headings read alike, the source gives them in different places. Blank lines part the entries; values can stand above or below the molecule they belong to.
How the values were obtained:
[1] = test system: rat uterine smooth muscle; test: contraction of isolated rat uterine smooth muscle strips induced by PGF2α; format: cell-based; conditions: for IC50: read-out: IC50, inhibition of uterine smooth muscle contraction; for inhibitory effect on PGF2α-induced contraction: amplitude and frequency
Description: Female healthy Wistar rats weighing 230-270 g were used in the experiment. At 2 days before the experiment, Diethylstilbestrol suspension was injected intraperitoneally once at 0.1 mg/kg, resulting in artificial estrus. The rats were sacrificed by cervical dislocation, and the uterus was removed by laparotomy and immediately placed in a glass plate containing Tyrode's solution. Connective and adipose tissues attached to the uterine wall were carefully peeled off, the uterus was cut open along the mesangial line and laid flat on the bottom of the glass plate, then one side of the uterus was divided into left and right uterine muscle strips by using a surgical blade along the uterine contraction band running along smooth muscle, the two ends of the uterine muscle strip on one side were ligated with wires respectively, and then transferred into a nutrient tube which was aerated with oxygen and filled with 5 ml of Tyrode's solution and preheated to 37.2±0.5° C., with a lower end fixed and an upper end connected with a tension sensor. The materials stood for 20-30 minutes, liquid was changed 2-3 times, then the uterus was given a load of 1 g and kept for 30-60 minutes until the uterus had regular contraction waves, 40 mM KCL solution was provided for 10 minutes, and the function of the uterine muscle strips was evaluated. Then the muscle strips were relaxed and washed 2-3 times with Tyrode's solution, then let stand for 30 minutes; after standing, the uterine muscle strips were given a load of 1 g and kept for 30-60 minutes, and the administration and the observation were carried out after the uterine muscle strips contracted stably (i.e. regular contraction waveforms appear in a microcomputer display screen), the changes of relevant data such as contraction tension, amplitude and area under the contraction curve of the uterine smooth muscle strips were recorded, and the drug given was evaluated. During the experiment, the working temperature of the Tyrode's solution was kept at 37.2±0.5° C., and oxygen was continuously aerated into the nutrient tube with 1-2 bubbles per second. A cumulative dosing method was adopted, and 5 μl was administered each time, from low concentration to high concentration. A final drug concentration refers to the concentration of the drug dissolved in 5 ml Tyrode's solution in a […] tube.
Fluacrypyrim (FAPM), the first strobilurin acaricide developed by BASF SE and Nippon Soda Co., Ltd., is a Qo site inhibitor of the mitochondrial cytochrome bc1 complex. […] The area under the smooth muscle contraction curve was calculated before drug intervention and 10 minutes after different doses of drug intervention respectively. A drug dose-effect curve was plotted by taking the area under the smooth muscle contraction curve caused by PGF2α as 100%, to calculate the median effective dose (IC50 value) of the drug for inhibiting uterine smooth muscle contraction.

[2] = test system: Mouse mononuclear macrophage RAW 264.7; test: nitric oxide production by LPS-stimulated macrophages (Griess assay); format: cell-based; conditions: for Maximum inhibition rate: in %; for IC50: read-out: IC50, NO production
[3] = test system: Kunming male mice; test: acetic acid writhing test on mice; format: in vivo, mouse; conditions: for curative effect compared with indomethacin: 100 mg/Kg versus indomethacin 50 mg/Kg; for writhe starting time (reaction latency) compared with control group: FAPM and trifloxystrobin intraperitoneal, azoxystrobin intragastric
[4] = test system: Kunming female mice; test: PGF2α-induced dysmenorrhea model in mice (diethylstilbestrol sensitization); format: in vivo, mouse; conditions: for Writhe starting time / Number of writhing times: Table 8; for Number of writhing times: within 30 min
Description: (§1) A mouse dysmenorrhea model was established with reference to Yang L., Cao Z., Yu B. & Chai C. An in vivo mouse model of primary dysmenorrhea. Exp Anim. 2015, August 64, 295-303. Adult healthy Kunming female mice were randomly grouped, 10 mice in each group. Experimental mice were intragastrically given diethylstilbestrol 0.2 mg daily for 12 days. Different kinds and dosages of the inhibitors of the cytochrome bc1 complex were given intraperitoneally or intragastrically 30 min after the last administration. Indometacin (50 mg/kg) was injected intraperitoneally as positive control, PGF2α (1.3 mg/kg) or oxytocin (20 U/kg) was injected intraperitoneally 1 h later, and the writhe starting time (reaction latency) and the number of writhing times within 30 min were observed and recorded.

[5] = test system: Kunming female mice; test: oxytocin-induced dysmenorrhea model in mice (diethylstilbestrol sensitization); format: in vivo, mouse; conditions: for Writhe starting time / Number of writhing times: Table 9; for Number of writhing times: within 30 min
Description: as §1

[6] = Rattus norvegicus, 10 min, PGF2α (450 nM), area under the contraction curve 10 minutes after drug
[7] = PGF2α (450 nM), area under the contraction curve 10 minutes after drug
[8] = Table 6, 200 mg/Kg intragastric
[9] = Table 6, 200 mg/Kg intragastric, within 30 min
[10] = Mus musculus, RAW264.7, LPS 1 μg/mL, 24 h
[11] = 50 mg/Kg versus indomethacin 50 mg/Kg

SMILES: COC(=O)N(OC)c1ccccc1COc1ccn(-c2ccc(Cl)cc2)n1 [Pyraclostrobin, pyraclostrobin]
IC50 [1, 6]: 1050 ± 10 nM

SMILES: CO/C(=C/C(N)=O)[C@H](C)[C@H](/C=C/c1csc(-c2csc([C@@H](C)/C=C/C=C/C(C)C)n2)n1)OC [Myxothiazol, myxothiazol, reference compound]
inhibitory effect on PGF2α-induced contraction ([1]; PGF2α (450 nM)): strongest inhibitory effect
IC50 values (level in words) ([1]; PGF2α-induced): nanomolar level
IC50 ([1]; PGF2α-induced): 215 nM
Maximum inhibition rate ([2]; LPS 1 μg/mL, 24 h): 95%
IC50 ([2]; LPS 1 μg/mL, 24 h): 2.8 nM

SMILES: CO/N=C(/C1=NOCCO1)c1ccccc1Oc1ncnc(Oc2ccccc2Cl)c1F [Fluoxastrobin, fluoxastrobin]
IC50 [1, 6]: 2630 ± 300 nM

SMILES: CO/C=C(/C(=O)OC)c1ccccc1COc1cccc(C(F)(F)F)n1 [Picoxystrobin, picoxystrobin]
IC50 [1, 7]: 1200 ± 20 nM
Writhe starting time ([3]; 200 mg/Kg intragastric): not prolonged
effect on number of writhing times ([3]; 200 mg/Kg intragastric): obviously inhibited
Writhe starting time [3, 8]: 3.3 ± 1.0 min
Number of writhing times [3, 9]: 29.3 ± 4.7

SMILES: C/C=C(C)/C=C/C=C/[C@H](OC)[C@@H](C)[C@@H](OC)[C@@H](C)CCc1oc2c(O)c(OC)cc(OC)c2c(=O)c1C [Stigmatellin, reference compound]
inhibitory effect on PGF2α-induced contraction ([1]; PGF2α (450 nM)): strongest inhibitory effect
IC50 values (level in words) ([1]; PGF2α-induced): nanomolar level
IC50 ([1]; Rattus norvegicus, PGF2α-induced): 89.9 nM
Maximum inhibition rate ([2]; LPS 1 μg/mL, 24 h): 88.3±3.9%
IC50 ([2]; Mus musculus, RAW264.7, 24 h): 6.24 ± 1.15 nM

IC50 [1, 6]: 8440 ± 700 nM
SMILES: O=C1C(O)=C([C@H]2CC[C@H](c3ccc(Cl)cc3)CC2)C(=O)c2ccccc21 [atovaquone, reference compound]

SMILES: CON=C(C(=O)OC)c1ccccc1CON=C(C)c1cccc(C(F)(F)F)c1 [trifloxystrobin]
IC50 [1, 6]: 1770 ± 50 nM
Maximum inhibition rate ([2]; LPS 1 μg/mL, 24 h): 90.7 ± 2.9%
IC50 [2, 10]: 640 ± 210 nM
curative effect compared with indomethacin [3]: equivalent to indomethacin at 50 mg/Kg
writhe starting time (reaction latency) compared with control group [3]: significantly prolonged
Number of writhing times ([3]; Table 4, 50 mg/Kg intraperitoneal, within 30 min): 22.3 ± 1.2
Writhe starting time ([3]; ip, 50 mg/kg): 3.3 ± 0.5 min
Writhe starting time ([3]; ip, 100 mg/kg): 4.3 ± 1.6 min
Number of writhing times ([3]; ip, 100 mg/kg, 0.5 h): 14.0 ± 1.7
Writhe starting time ([3]; ip, 200 mg/kg): 8.5 ± 2.4 min
Number of writhing times ([3]; ip, 200 mg/kg, 0.5 h): 4.0 ± 2.3

SMILES: CO/C=C(/C(=O)OC)c1ccccc1Oc1cc(Oc2ccccc2C#N)ncn1 [azoxystrobin]
IC50 [1, 7]: 1700 ± 120 nM
Maximum inhibition rate ([2]; LPS 1 μg/mL, 24 h): 86.7 ± 4.3%
IC50 ([2]; LPS 1 μg/mL, 24 h): 1890 ± 350 nM
curative effect compared with indomethacin [4, 11]: equivalent to indomethacin at 50 mg/Kg
effect on number of writhing times ([4]; FAPM intraperitoneal, azoxystrobin intragastric, 50, 100 and 200 mg/Kg one hour before): in a dose-dependent manner
Writhe starting time ([4]; 50 mg/Kg intragastric): 2.1 ± 1.0 min
Number of writhing times ([4]; 50 mg/Kg intragastric): 17.7 ± 1.9
Writhe starting time ([4]; 100 mg/Kg intragastric): 2.0 ± 1.1 min
Number of writhing times ([4]; 100 mg/Kg intragastric): 12.8 ± 2.4
Writhe starting time ([4]; 200 mg/Kg intragastric): 2.2 ± 0.8 min
Number of writhing times ([4]; 200 mg/Kg intragastric): 10.3 ± 1.3
curative effect compared with indomethacin [5, 11]: equivalent to 50 mg/Kg of indomethacin
Writhe starting time ([5]; 50 mg/Kg intragastric): 3.3 ± 1.5
Number of writhing times ([5]; 50 mg/Kg intragastric): 24.2 ± 4.1
Writhe starting time ([5]; 100 mg/Kg intragastric): 3.9 ± 1.5
Number of writhing times ([5]; 100 mg/Kg intragastric): 14.2 ± 2.2
Writhe starting time ([5]; 200 mg/Kg intragastric): 3.3 ± 1.3
Number of writhing times ([5]; 200 mg/Kg intragastric): 7.6 ± 1.9
effect on number of writhing times ([5]; intragastric 50, 100 and 200 mg/Kg): in a dose-dependent manner
curative effect compared with indomethacin [3]: equivalent to indomethacin at 50 mg/Kg
writhe starting time (reaction latency) compared with control group [3]: not significantly prolonged
Writhe starting time ([3]; Table 5, 50 mg/Kg intragastric): 3.2 ± 1.1 min
Number of writhing times ([3]; Table 5, 50 mg/Kg intragastric, within 30 min): 31.9 ± 3.1
Writhe starting time ([3]; Table 5, 100 mg/Kg intragastric): 3.4 ± 1.8 min
Number of writhing times ([3]; Table 5, 100 mg/Kg intragastric, within 30 min): 24.9 ± 4.6
Writhe starting time ([3]; Table 5, 200 mg/Kg intragastric): 3.7 ± 1.5 min
Number of writhing times ([3]; Table 5, 200 mg/Kg intragastric, within 30 min): 21.6 ± 3.5
Writhe starting time ([3]; Table 5, 400 mg/Kg intragastric): 3.4 ± 1.2 min
Number of writhing times ([3]; Table 5, 400 mg/Kg intragastric, within 30 min): 12.4 ± 4.2

SMILES: CO/N=C(/C(=O)OC)c1ccccc1COc1ccccc1C [kresoxim-methyl]
IC50 [1, 6]: 4080 ± 290 nM
Maximum inhibition rate ([2]; LPS 1 μg/mL, 24 h): 88.7 ± 5.6%
IC50 [2, 10]: 2770 ± 690 nM
Writhe starting time ([3]; 200 mg/Kg intragastric): not prolonged
effect on number of writhing times ([3]; 200 mg/Kg intragastric): obviously inhibited
Writhe starting time [3, 8]: 3.4 ± 1.0 min
Number of writhing times [3, 9]: 33.0 ± 2.9

IC50 [1, 6]: 8440 ± 700 nM
SMILES: CC(C)c1c(C(=O)Nc2ccccc2)c(-c2ccccc2)c(-c2ccc(F)cc2)n1CC[C@@H](O)C[C@@H](O)CC(=O)O [atorvastatin, reference compound]

SMILES: CNC(=O)/C(=N/OC)c1ccccc1COc1cc(C)ccc1C [Dimoxystrobin, dimoxystrobin]
IC50 [1, 7]: 1650 ± 120 nM
Writhe starting time ([3]; 200 mg/Kg intragastric): not prolonged
effect on number of writhing times ([3]; 200 mg/Kg intragastric): obviously inhibited
Writhe starting time [3, 8]: 3.3 ± 0.5 min
Number of writhing times [3, 9]: 31.5 ± 4.7

From patent US11058690B2, “Use of cytochrome bc1 complex inhibitor in preparing pharmaceutical composition” (BEIJING WEILANZHIYUAN MEDICAL TECHNOLOGY CO., LTD., priority 2017, dated 2021)
